Calls of active or inactive are those of the source. The rule behind the calls is not given here.
Assays:
Format in all cases: functional, cell-based
[1] = Cytotoxicity against taxol-resistant human NCI/ADR cells after 72 hrs by MTT assay; settings: NCI/ADR-RES
ASPC1 = assay: Cytotoxicity against human AsPC1 cells after 72 hrs by MTT assay; settings: ASPC1, 72 h
DLD-1 = assay: Cytotoxicity against human DLD1 cells after 72 hrs by MTT assay; settings: DLD-1, 72 h
PANC-1 [2] = assay: Cytotoxicity against human PANC1 cells after 72 hrs by MTT assay; settings: PANC-1, 72 h
P388 = assay: Cytotoxicity against mouse P388 cells by MTT assay
PANC-1 [3] = assay: Microtubule polymerization in human PANC1 cells
PANC-1 [4] = assay: Cell cycle arrest in human PANC1 cells assessed as accumulation at G2/M phase after 24 hrs

Compound | IC50 [1] [nM] | IC50 (ASPC1) [nM] | IC50 (DLD-1) [nM] | IC50 (PANC-1 [2]) [nM] | IC50 (P388) [nM] | Activity (PANC-1 [3]) | Activity (PANC-1 [4])
CC(=O)O[C@H]1C(=O)[C@@]2(C)[C@H]([C@H](OC(=O)c3ccccc3)[C@]3(O)C[C@H](OC(=O)[C@H](O)[C@@H](NC(=O)c4ccccc4)c4ccccc4)C(C)=C1C3(C)C)[C@]1(OC(C)=O)CO[C@@H]1C[C@@H]2O [PACLITAXEL] | 1000 | 20 | 11 | 7 |  |  | 
C=C/C=C\[C@H](C)[C@H](OC(N)=O)[C@@H](C)[C@H](O)[C@@H](C)C/C(C)=C\[C@H](C)[C@@H](O)[C@@H](C)/C=C\[C@@H](O)C[C@@H]1OC(=O)[C@H](C)[C@@H](O)[C@H]1C [DISERMOLIDE] | 160 | 98 | 29 | 59 | 35 |  | 
C=C/C=C\[C@H](C)[C@@H]1OC(=O)/C=C\C=C\[C@@H](C)[C@@H](O)C[C@H](O)/C=C\[C@H](C)[C@H](O)[C@@H](C)C[C@@H](C)CC[C@@H](O)[C@@H]1C [DICTYOSTATIN] | 9.8 | 9 | 0.8 | 3.4 |  |  | 
C=C/C=C\[C@H](C)[C@@H]1OC(=O)/C=C\C=C\[C@@H](C)[C@@H](O)C[C@H](O)CC[C@H](C)[C@H](O)[C@@H](C)C[C@@H](C)CC[C@@H](O)[C@@H]1C | 300 | 43 | 10 | 18 |  | Active | Active
